This test deals with Huh7 psiCHECK-miR122 Renilla luciferase reporter, 48 h. In words: suppression of miR-122 activity, Renilla luciferase sensor – cell-based, Huh7 psiCHECK-miR122, cherry-pick, dose response (AID 652053).

Each structure is given as a SMILES string.

As for `C[C@H](CO)N1C[C@H](C)[C@H](CN(C)Cc2ccc(C(=O)Nc3ccccc3N)cc2)Oc2ccc(NS(=O)(=O)c3ccccc3)cc2CC1=O`, the AC40 was 3.45 µM.
In the case of `COc1ccc(OC)c(C2C3=C(COC3=O)Nc3cc4c(cc32)OCO4)c1` (stereo not drawn), the AC40 was 17.7 µM.
With `COc1ccc(NS(=O)(=O)c2ccc(OC)c(OC)c2)cc1OC` the figure was 5.37 µM; with `Nc1c(S(=O)(=O)c2cc(Cl)ccc2Cl)c2nc3ccccc3nc2n1CCN1CCOCC1`, 6.22 µM; with `O=C(Nc1sc2c(c1C(=O)O)CCC2)c1cccs1`, 9.16 µM.
Take `Oc1ccc(/C=N/NP(=S)(c2ccccc2)c2ccccc2)cc1`: the AC40 is 7.07 µM.
As for `CCOc1cc(C)c(Cl)cc1S(=O)(=O)NCC1CCCO1` (stereo not drawn), the AC40 is 1.2 µM.
As for `COc1ccc(OC)c(-c2csc(NC(=O)Cc3ccccc3F)n2)c1`, the AC40 is 8.49 µM.
Next, `Cc1ccc(C(C)C)cc1S(=O)(=O)NCc1ccccn1`: 1.38 µM; `COc1cc(S(=O)(=O)N2CCCCCC2)c(OC)cc1Br`: 1.74 µM.
With `COc1ccccc1N(CC(=O)N1CCCCC1C)S(=O)(=O)c1ccc(Cl)cc1` (stereo not drawn) the figure was 2.31 µM; with `CN1C(=O)c2cc(NC(=O)Cc3ccccc3)ccc2OC[C@@H]2O[C@H](CC(=O)NCC3CC3)CC[C@@H]21`, 0.512 µM.
Take `C[C@H](CO)N1C[C@H](C)[C@@H](CN(C)Cc2cncnc2)Oc2cc(C#CC3CCCC3)ccc2S1(=O)=O`: the AC40 was 0.805 µM.
Next, `OC(c1ccc(Cl)c(F)c1)c1ncc(-c2ccccc2F)[nH]1` (stereo not drawn): 2.04 µM; `CC(=O)N1c2c(cc(Br)cc2S(=O)(=O)NCc2ccccc2)CC1C` (stereo not drawn): 5.96 µM; `Cc1ccc([N+](=O)[O-])cc1N(CC(=O)Nc1ccc(S(=O)(=O)Nc2cccc(C(F)(F)F)c2)cc1)S(C)(=O)=O`: 14 µM.
With `CCN1C(=O)c2cccc3c(S(=O)(=O)N(C(=O)c4cccnc4)c4ccc(OC)cc4)ccc1c23` the figure was 1.21 µM.
Next, `CCc1ccc(NS(=O)(=O)c2cc(OC)ccc2OC)cc1`: 0.866 µM.
Take `O=C(NNS(=O)(=O)c1ccc(Cl)cc1)c1cccc(S(=O)(=O)N2CCOCC2)c1`: the AC40 is 5.2 µM.
Next, `Cc1ccc(N(CC(=O)NCc2cccs2)S(=O)(=O)c2cccs2)cc1`: 29 µM.
With `Fc1cccc(NC(=S)NC2CCCCCCC2)c1` the figure was 4.22 µM; with `C[C@@H]1CN([C@H](C)CO)C(=O)c2cccc(N(C)C)c2O[C@H]1CN(C)C(=O)Nc1ccccc1`, 1.33 µM.
With `CC(=O)N1CC(C)Sc2ccc(S(=O)(=O)NCc3ccc(F)cc3)cc21` (stereo not drawn) the figure was 4.49 µM; with `COc1ccc(S(=O)(=O)Nc2ccc(S(=O)(=O)N3CCOCC3)cc2)cc1`, 14.7 µM.
As for `C[C@@H]1CN([C@@H](C)CO)S(=O)(=O)c2ccc(C#CCN(C)C)cc2O[C@@H]1CN(C)Cc1ccc2c(c1)OCO2`, the AC40 is 8.29 µM.
Next, `O=S1(=O)N=CN(Cc2cccc(F)c2)c2ccccc21`: 3.02 µM; `COc1ccc(NS(=O)(=O)c2cc3c(cc2C)N(C)CCO3)c(OC)c1`: 1.81 µM.
With `O=S(=O)(NCC1CCCO1)c1ccc(Oc2ccccc2)cc1` (stereo not drawn) the figure was 5.86 µM; with `COc1cc(S(=O)(=O)NCc2cccnc2)c(OC)cc1Br`, 4.72 µM.
On to `C[C@H](CO)N1C[C@H](C)[C@@H](CN(C)Cc2ccc(Oc3ccccc3)cc2)Oc2c(NC(=O)C3CCOCC3)cccc2C1=O`, for which the AC40 is 1.31 µM.
Next, `COc1cc(NS(=O)(=O)c2ccc(C)c(C)c2)c(OC)cc1Cl`: 15.2 µM; `Cc1ccc(C2CC(c3cccs3)=NN2S(=O)(=O)c2ccc(C)cc2)cc1` (stereo not drawn): 8.19 µM; `Cc1ccc(CN2CCSc3ccc(C(=O)NCc4cccnc4)cc32)cc1`: 10.6 µM.
On to `O=S(=O)(NCCc1ccc(F)cc1)c1cc(C(F)(F)F)ccc1Br`, for which the AC40 is less than 0.26 µM.
With `Cc1cc(C)cc(NS(=O)(=O)c2ccc3oc(=O)ccc3c2)c1` the figure was 3.43 µM; with `CC(C)CNS(=O)(=O)c1ccc2c(c1)OCCO2`, 5.9 µM; with `O=S(=O)(c1ccc(F)cc1)N1C[C@H]2[C@@H](c3ccccc31)[C@@H](CO)N2Cc1ccc2c(c1)OCO2`, 4.82 µM.
With `CCN(CC(=O)NCc1cccs1)C(=O)c1cccc(S(=O)(=O)Nc2cccc(C)c2)c1` the figure was 6.04 µM; with `Cc1noc(C)c1S(=O)(=O)N(C)C[C@@H]1Oc2c(NC(=O)C3CCOCC3)cccc2C(=O)N([C@@H](C)CO)C[C@@H]1C`, 4.51 µM.
Next, `O=C(Cc1ccccc1)N1C[C@H]2[C@@H](c3ccccc31)[C@@H](CO)N2C(=O)C1CCCCC1`: 6.07 µM; `C[C@H](CO)N1C[C@H](C)[C@H](CN(C)Cc2ccc(C(=O)Nc3ccccc3N)cc2)Oc2c(NS(=O)(=O)c3ccccc3)cccc2C1=O`: 16.1 µM; `Cc1csc2c(=O)sc(NC(=O)c3ccco3)nc12`: 14.5 µM.
Regarding `Cc1ccc(S(=O)(=O)NCC[C@@H]2CC[C@@H](NC(=O)c3cnccn3)[C@H](CO)O2)cc1`, the AC40 was 10.2 µM.
With `COc1cc(NS(=O)(=O)c2ccc(NC(=S)NC(=O)c3ccco3)cc2)nc(OC)n1` the figure was 7.11 µM; with `COc1ccccc1CNS(=O)(=O)c1cc(-c2cc(C)no2)ccc1C(C)C`, 4.78 µM.
With `COc1ccccc1NS(=O)(=O)c1cc(NC(=O)c2cc(=O)[nH]c3ccccc23)ccc1N1CCOCC1` the figure was 1.01 µM; with `Cc1cc(C(=O)Nc2cccc3c2O[C@H](CN(C)Cc2ccc(C(F)(F)F)cc2)[C@@H](C)CN([C@H](C)CO)C3=O)n(C)n1`, 0.943 µM.
For the molecule `Cc1ccc(C2c3c(-c4ccccc4O)n[nH]c3C(=O)N2Cc2ccncc2)cc1` (stereo not drawn), the AC40 was 8.08 µM.
Next, `CC(C)(C)C(=O)Nc1cc(S(=O)(=O)Nc2ccc(Cl)cc2)ccc1Cl`: 2.74 µM; `Cc1cc(C)c(S(=O)(=O)Nc2ccc3c4c(cccc24)CC3)c(C)c1`: 7.76 µM.
`CCOC(=O)c1ccc(NS(=O)(=O)c2cc(C)ccc2OC)cc1`: the AC40 was 8.03 µM.
With `COc1ccc(NS(=O)(=O)c2cc(NC(=O)c3ccc(=O)[nH]n3)ccc2C)cc1` the figure was 5.01 µM.
Next, `CCCCn1c(NC(=O)c2ccc(Br)o2)c(S(=O)(=O)c2ccccc2)c2nc3ccccc3nc21`: 25.7 µM.
Next, `C[C@H]1CN([C@@H](C)CO)S(=O)(=O)c2ccc(C#CCN(C)C)cc2O[C@@H]1CN(C)Cc1ccc2c(c1)OCO2`: 3.68 µM; `CCOc1cc(C)c(S(=O)(=O)Nc2ccc(F)cc2)cc1C`: 0.908 µM.
For the molecule `C[C@@H]1CN([C@H](C)CO)C(=O)c2cccc(NC(=O)Nc3ccccc3)c2O[C@H]1CN(C)Cc1ccc(C(F)(F)F)cc1`, the AC40 is 3.22 µM.
With `COc1cc(C)c(C(C)C)cc1S(=O)(=O)N1CCN(C)CC1` the figure was 7.96 µM; with `Cc1cc(C)cc(NS(=O)(=O)c2ccc(F)cc2)c1`, 10.9 µM.
With `Cc1ccc(NC(=O)C(=O)c2c(-c3ccccc3)cc3ccccn23)cc1S(=O)(=O)N1CCOCC1` the figure was 27.9 µM; with `Cc1ccc(OP(=O)(Nc2cccc(C)c2)Oc2ccc(C)cc2)cc1`, 6.66 µM.
Take `COc1ccc(Br)cc1S(=O)(=O)N1CCN=C1c1ccccc1`: the AC40 was 9.26 µM.
As to `CCNS(=O)(=O)c1ccc2c3c(cccc13)C(=O)N2`, the AC40 was 11.6 µM.
With `CCc1ccc(-c2cc(C)no2)cc1S(=O)(=O)NCCc1ccc(OC)c(OC)c1` the figure was 7.43 µM.

Values taken from PubChem BioAssay AID652053 (Broad Institute, 2013).
